Assays:
[1] = test system: E. coli 683/17; experiment: MIC for planktonic cell growth (A625nm); type: cell-based, Escherichia coli; conditions: for MICPC80: ≥80% inhibition, 24 h
Protocol: (§1) Ten concentrations of NAC, RLs, and UA were tested to determine the minimum inhibitory concentration for planktonic growth, and subsequently, the six highest concentrations were applied on preformed biofilms to evaluate the biofilm eradication ability of the compounds. MIC was defined as the lowest substance concentration able to inhibit at least 80% of microbial growth (MICPC80 for planktonic cells, MICBC80 for further growth of biofilm cells), inhibit 80% of metabolic activity (MICBM80 for biofilm metabolic activity, MICMPB80 for metabolic activity of preformed biofilm), prevent biofilm formation by at least 80% (MICBF80 for biofilm formation), or reduce a preformed biofilm by at least 80% (MICBR80 for biofilm reduction). The results of MICs are summarized in Table 1 (planktonic cells) and Table 2 (biofilm-associated cells).
(§2) The determination of MICs was performed according to Chlumsky et al.. Briefly, 96-well flat-bottomed microtiter plates were inoculated with 75 µL (for biofilm formation) or 100 µL (for preformed biofilm) of bacterial suspension (A625nm 0.08 to 0.1) in technical triplicates and were then carefully mixed with the dilution series of the test substances (24 h cultivation at 25 °C for S. Infantis, 37 °C for other strains) or were directly cultivated to preform biofilms (18 h). For a positive control of bacterial growth, the inoculum was mixed with a pure sterile medium. Furthermore, the sterile medium was included in the plate as a marker of potential microbial contamination. To evaluate planktonic cells growth (MICPC80) and further growth of biofilm cells (MICBC80), the optical density of the content of the microtiter plates was measured spectrophotometrically at 625 nm before and after 24 h (for biofilm formation) of cultivation or before and after additional 20 h incubation with the tested compound (for preformed biofilm). The difference of A625nm was considered as a measure of the ability of cells to grow in the presence of the tested substances. To evaluate the inhibition of biofilm formation (MICBF80) and reduction in preformed biofilms (MICBR80), biomass was quantified using crystal violet staining, and its metabolic activity (MICBM80 and MICMPB80) was estimated by using the MTT (thiazyl tetrazolium bromide, Sigma-Aldrich, USA) reduction assay, both measured spectrophotometrically at 595 nm.
(§3) All inhibitions were calculated using the formula of Chlumsky et al. below (Equation (1)):(1) A625(595)nm inhibition (%)=A625(595)nm (control) – A625(595)nm(natural substance)/A625(595)nm (control)× 100 where A625(595)nm (control) is the absorbance of bacterial suspension/biofilm itself, and A625(595)nm(natural substance) is the absorbance of the bacterial suspension/biofilm with the added natural substance (NAC, RLs, and UA).
(§4) When the minimum inhibitory concentration could not be determined, the MIC was established as >the highest tested concentration for NAC, RLs, and UA.

[2] = test system: E. coli 693/17; experiment: MIC for planktonic cell growth (A625nm); type: cell-based, Escherichia coli; conditions: for MICPC80: ≥80% inhibition, 24 h
Protocol: as §1, §2, §3, §4

[3] = test system: E. coli 683/17; experiment: MIC for biofilm formation (crystal violet staining); type: cell-based, Escherichia coli; conditions: for MICBF80: ≥80% prevention, 24 h
Protocol: as §1, §2, §3, §4

[4] = test system: E. coli 683/17; experiment: MIC for metabolic activity of preformed biofilm (MTT reduction assay); type: cell-based, Escherichia coli; conditions: for MICMPB80: ≥80% inhibition, 20 h with substance
Protocol: as §1, §2, §3, §4

[5] = test system: E. coli 693/17; experiment: as above; type: cell-based, Escherichia coli
Protocol: as §1, §2, §3, §4

[6] = test system: L. monocytogenes 149; experiment: CLSM analysis, biofilm removal (preformed biofilm); type: cell-based, Listeria monocytogenes; conditions: 20 h exposure, mean ± SD; for Thickness (µm) MICBM80: substance at its MIC; for Thickness (µm) subCBM80: substance at subinhibitory concentration
Protocol: (§5) Biofilm prevention and removal analyses were performed using previously determined minimum inhibitory and subinhibitory concentrations for metabolic activity (MICBM80, subCBM80; MICMPB80, subCMPB80) of NAC, RLs, and UA specific for each tested strain. Selected concentrations were used to evaluate the inhibition of biofilm formation (biofilm prevention) and the reduction in previously formed biofilms (biofilm removal) for the same set of microorganisms, with the exception of S. Infantis, which was excluded from the analysis due to its inability to form biofilm in the selected microtiter plate. Biofilm prevention and removal were observed using CLSM with specific staining to distinguish between live and membrane-compromised cells. Images were analyzed to evaluate (i). the total volume of the biomass, (ii). ratios of live and membrane-compromised cells, and (iii). to calculate biofilm volume reduction for individual organisms after the respective treatment types. The total biofilm volume was normalized by the area of the well and expressed as an average biofilm thickness. Complete data are provided in Supplementary Materials (Tables S1–S8).
(§6) At first, bacterial suspensions were cultivated in microtiter plates to produce overnight biofilms (18 h). […] cells were then washed out, and the remaining biofilms were further cultivated for an additional 20 h with selected compounds. Following biofilm cultivation, biomass was observed using CLSM with live/membrane-compromised cell staining. Biomass images from biofilm removal treatments were similar to results from biofilm prevention, where biomass was highly diversified across the bacterial species and strains. Visually, biomass images were fairly consistent within the quadruplicates for each tested organism. Non-treated biofilms of S. aureus contained consistent biomass spread across the well (S. aureus 816) or grown around the edges (S. aureus 1241). […] PI staining identified membrane-compromised cells spread across S. aureus 816 biomass and incorporated in the edge of biomass and/or in the central part of the well (Figure 4B,C). […] Membrane-compromised cells appeared contained around the edges (S. aureus 1241), disturbed across the well (in both strains of L. monocytogenes), or in separated biomass in the central part of the well (in both strains of E. coli when treated with the subinhibitory concentration of RLs) (Figure 4D,E).
(§7) For both inhibition and reduction of biofilms, overnight cultures from BHI were diluted in TSB + 1% Glc to reach an absorbance of 0.08 to 0.1 at 625 nm. The inoculum (150 µL) was transferred into wells of the 96-well flat-bottomed Ibidiμ-Plate (Ibidi, Gräfelfing, Germany) and mixed with 150 µL of each of the three tested substances in technical quadruplicates, followed by incubation at 37 °C for 24 h. Simultaneously, the prepared bacterial suspensions were inoculated to an additional microtiter plate (200 µL) and allowed to form biofilm overnight (18 h at 37 °C). After the incubation, the content of the well was drained off, and 200 µL of each of the three tested substances was added to the plate, which was then incubated for an additional 20 h. The used concentrations of the substances represented the subinhibitory and minimum inhibitory concentrations for metabolic activity (subCBM80, MICBM80; subCMPB80, MICMPB80). Both setups contained a positive control of the bacterial growth (inoculum mixed with sterile TSB + 1% Glc medium) and a control monitoring microbial contamination (sterile medium). Non-treated wells were used as a positive control for comparison between non-treated and treated biofilm mass.
(§8) Prior to the imaging, the wells were stained with the LIVE/DEAD® BacLight™ Bacterial Viability Kit (Thermo Fisher Scientific, MA, USA) following the manufacturer’s guidelines and Drago et al.. […]

[7] = test system: L. monocytogenes 164; experiment: CLSM analysis, biofilm removal (preformed biofilm); type: cell-based, Listeria monocytogenes; conditions: for Thickness (µm) MICBM80: substance at its MIC
Protocol: as §5, §6, §7, §8

[8] = preformed biofilm, 20 h exposure, mean ± SD

| SMILES | maximal achieved inhibition (MICPC80 not reached) ([1]; within tested concentrations) | MICPC80 [1] | maximal achieved inhibition (MICPC80 not reached) ([2]; within tested concentrations) | MICPC80 [2] | maximal achieved inhibition (MICBF80 not reached) ([3]; within tested concentrations) | MICBF80 [3] | maximal achieved inhibition (MICMPB80 not reached) ([4]; within tested concentrations) | MICMPB80 [4] | maximal achieved inhibition (MICMPB80 not reached) ([5]; within tested concentrations) | Thickness (µm) MICBM80 [6] | Thickness (µm) subCBM80 [6] | Thickness (µm) MICBM80 [7, 8] | MICMPB80 ([5]; ≥80% inhibition, 20 h with substance) | proportion of membrane-compromised cells ([7]; 20 h, MIC and subinhibitory concentration) | Thickness (µm) subCBM80 ([7]; preformed biofilm, 20 h exposure, substance at subinhibitory concentration, mean ± SD) |
| --- | --- | --- | --- | --- | --- | --- | --- | --- | --- | --- | --- | --- | --- | --- | --- |
| CC(=O)c1c(O)c(C)c(O)c2c1OC1=CC(=O)C(C(C)=O)C(=O)C12C (single isomer, unassigned; (+)) [UA, (+)-usnic acid] | 20% | > 31.3 µg/mL | 40% | > 31.3 µg/mL | 10% | > 31.3 µg/mL | 45% | > 31.3 µg/mL | 20% | 317 ± 62.3 µm | 276 ± 26.8 µm | 440 ± 60.8 µm | – | – | – |
| CC(=O)N[C@@H](CS)C(=O)O [NAC, N-Acetyl-L-cysteine] | – | 3130 µg/mL | – | 6250 µg/mL | – | 6250 µg/mL | – | 12,500 µg/mL | – | 338 ± 85.7 µm | 332 ± 51.2 µm | 345 ± 62 µm | 12,500 µg/mL | up to 20% | 335 ± 23.1 µm |

Reference: paper PMC8583417, “Evaluation of the Antimicrobial Efficacy of N-Acetyl-L-Cysteine, Rhamnolipids, and Usnic Acid—Novel Approaches to Fight Food-Borne Pathogens” (International Journal of Molecular Sciences, 2021)
